From PMC8980814 (The Journal of Biological Chemistry, 2022) come the findings set out here.

Test in all cases: whole-cell patch clamp, HEK-293T
Type in all cases: cell-based

Assay [1] addresses T1, TCaV1 (Trichoplax adhaerens, UniProt A0A8K1XS01). The conditions noted are these: for inhibition at 10 µM: read-out: % block at 10 μM.
In assay [2] the target is T2, rCaV1.2 (Rattus norvegicus, UniProt P22002). Conditions: for inhibition at 10 µM: read-out: % block at 10 μM.
The target in assay [3] is T1, TCaV1. The conditions noted are these: 3 mM external Ca2+, step from -100 mV to 0 mV, pH 7.4, agonist.
Assay [4] deals with T2, rCaV1.2. Conditions: 3 mM external Ca2+, step from -100 mV to 0 mV, pH 7.4, agonist.

T2 sequence (P22002 whole entry): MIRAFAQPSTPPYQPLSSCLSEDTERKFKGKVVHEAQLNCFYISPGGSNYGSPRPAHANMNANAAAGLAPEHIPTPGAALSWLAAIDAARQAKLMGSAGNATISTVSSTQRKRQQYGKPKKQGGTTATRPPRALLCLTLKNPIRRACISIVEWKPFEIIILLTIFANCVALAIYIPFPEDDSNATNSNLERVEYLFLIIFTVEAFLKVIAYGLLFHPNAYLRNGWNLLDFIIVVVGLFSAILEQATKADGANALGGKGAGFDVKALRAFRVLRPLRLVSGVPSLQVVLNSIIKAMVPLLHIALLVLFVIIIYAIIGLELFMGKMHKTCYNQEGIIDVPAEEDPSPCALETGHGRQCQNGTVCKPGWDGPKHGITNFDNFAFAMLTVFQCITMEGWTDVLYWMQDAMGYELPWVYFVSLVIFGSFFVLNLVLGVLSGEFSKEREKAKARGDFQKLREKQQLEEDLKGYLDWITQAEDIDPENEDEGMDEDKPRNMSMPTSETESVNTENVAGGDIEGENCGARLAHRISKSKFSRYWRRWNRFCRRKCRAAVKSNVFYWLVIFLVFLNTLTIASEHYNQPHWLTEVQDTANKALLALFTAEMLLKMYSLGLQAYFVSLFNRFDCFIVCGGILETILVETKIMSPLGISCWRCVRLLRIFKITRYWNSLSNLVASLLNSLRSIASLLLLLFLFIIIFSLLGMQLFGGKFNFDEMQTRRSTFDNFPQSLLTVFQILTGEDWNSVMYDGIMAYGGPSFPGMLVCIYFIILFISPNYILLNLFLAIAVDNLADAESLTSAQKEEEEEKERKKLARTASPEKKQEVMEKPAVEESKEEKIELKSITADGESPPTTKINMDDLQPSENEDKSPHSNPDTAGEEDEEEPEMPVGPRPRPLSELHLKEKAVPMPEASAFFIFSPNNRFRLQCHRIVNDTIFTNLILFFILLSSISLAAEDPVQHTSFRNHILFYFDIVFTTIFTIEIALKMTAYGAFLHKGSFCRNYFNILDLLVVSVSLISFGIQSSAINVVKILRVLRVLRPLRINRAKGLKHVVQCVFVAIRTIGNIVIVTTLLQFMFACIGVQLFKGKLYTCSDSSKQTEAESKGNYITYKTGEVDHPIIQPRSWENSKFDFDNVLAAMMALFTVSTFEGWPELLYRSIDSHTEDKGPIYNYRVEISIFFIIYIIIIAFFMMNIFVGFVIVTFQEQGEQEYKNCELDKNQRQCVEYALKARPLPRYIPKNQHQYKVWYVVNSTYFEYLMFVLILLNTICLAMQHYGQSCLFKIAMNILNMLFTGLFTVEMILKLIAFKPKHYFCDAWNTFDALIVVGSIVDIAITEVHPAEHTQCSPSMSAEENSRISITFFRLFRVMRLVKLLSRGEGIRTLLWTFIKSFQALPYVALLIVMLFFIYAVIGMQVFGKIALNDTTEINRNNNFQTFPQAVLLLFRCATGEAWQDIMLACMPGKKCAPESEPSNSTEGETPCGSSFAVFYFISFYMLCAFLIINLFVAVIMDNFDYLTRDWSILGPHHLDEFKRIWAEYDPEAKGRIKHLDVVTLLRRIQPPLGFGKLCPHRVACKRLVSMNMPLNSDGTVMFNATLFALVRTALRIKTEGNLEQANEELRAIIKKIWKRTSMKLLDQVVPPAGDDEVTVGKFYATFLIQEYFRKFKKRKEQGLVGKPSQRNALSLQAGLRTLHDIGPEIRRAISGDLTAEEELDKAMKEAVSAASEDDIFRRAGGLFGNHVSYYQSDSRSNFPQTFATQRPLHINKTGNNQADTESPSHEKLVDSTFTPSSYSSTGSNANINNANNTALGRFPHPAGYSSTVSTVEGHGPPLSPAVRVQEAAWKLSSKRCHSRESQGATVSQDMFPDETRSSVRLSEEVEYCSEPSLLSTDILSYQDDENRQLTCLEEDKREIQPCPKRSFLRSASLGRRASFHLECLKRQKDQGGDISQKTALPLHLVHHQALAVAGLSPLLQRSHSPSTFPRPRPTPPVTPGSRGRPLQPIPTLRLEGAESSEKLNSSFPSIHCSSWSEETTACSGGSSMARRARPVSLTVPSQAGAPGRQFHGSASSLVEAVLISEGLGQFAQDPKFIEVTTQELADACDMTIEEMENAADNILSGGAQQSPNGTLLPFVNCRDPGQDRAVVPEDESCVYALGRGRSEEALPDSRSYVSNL
T2 sequence (P54283 whole entry partner): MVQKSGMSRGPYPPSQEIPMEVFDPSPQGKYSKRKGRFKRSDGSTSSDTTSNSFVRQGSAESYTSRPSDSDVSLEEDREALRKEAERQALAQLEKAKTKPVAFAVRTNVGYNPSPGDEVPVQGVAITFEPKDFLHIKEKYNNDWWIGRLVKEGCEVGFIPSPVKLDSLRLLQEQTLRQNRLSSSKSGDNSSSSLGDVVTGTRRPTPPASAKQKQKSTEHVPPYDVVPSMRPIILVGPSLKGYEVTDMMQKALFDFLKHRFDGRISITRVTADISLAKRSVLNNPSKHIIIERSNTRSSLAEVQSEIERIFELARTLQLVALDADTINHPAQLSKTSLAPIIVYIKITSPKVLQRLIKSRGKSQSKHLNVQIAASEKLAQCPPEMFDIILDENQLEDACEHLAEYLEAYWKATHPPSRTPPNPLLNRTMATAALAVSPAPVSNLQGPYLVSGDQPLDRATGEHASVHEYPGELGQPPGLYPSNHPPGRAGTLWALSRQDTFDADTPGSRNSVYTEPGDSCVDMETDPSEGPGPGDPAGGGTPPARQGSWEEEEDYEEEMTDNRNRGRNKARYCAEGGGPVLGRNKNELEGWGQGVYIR
T2 sequence (P54290 25-944 partner): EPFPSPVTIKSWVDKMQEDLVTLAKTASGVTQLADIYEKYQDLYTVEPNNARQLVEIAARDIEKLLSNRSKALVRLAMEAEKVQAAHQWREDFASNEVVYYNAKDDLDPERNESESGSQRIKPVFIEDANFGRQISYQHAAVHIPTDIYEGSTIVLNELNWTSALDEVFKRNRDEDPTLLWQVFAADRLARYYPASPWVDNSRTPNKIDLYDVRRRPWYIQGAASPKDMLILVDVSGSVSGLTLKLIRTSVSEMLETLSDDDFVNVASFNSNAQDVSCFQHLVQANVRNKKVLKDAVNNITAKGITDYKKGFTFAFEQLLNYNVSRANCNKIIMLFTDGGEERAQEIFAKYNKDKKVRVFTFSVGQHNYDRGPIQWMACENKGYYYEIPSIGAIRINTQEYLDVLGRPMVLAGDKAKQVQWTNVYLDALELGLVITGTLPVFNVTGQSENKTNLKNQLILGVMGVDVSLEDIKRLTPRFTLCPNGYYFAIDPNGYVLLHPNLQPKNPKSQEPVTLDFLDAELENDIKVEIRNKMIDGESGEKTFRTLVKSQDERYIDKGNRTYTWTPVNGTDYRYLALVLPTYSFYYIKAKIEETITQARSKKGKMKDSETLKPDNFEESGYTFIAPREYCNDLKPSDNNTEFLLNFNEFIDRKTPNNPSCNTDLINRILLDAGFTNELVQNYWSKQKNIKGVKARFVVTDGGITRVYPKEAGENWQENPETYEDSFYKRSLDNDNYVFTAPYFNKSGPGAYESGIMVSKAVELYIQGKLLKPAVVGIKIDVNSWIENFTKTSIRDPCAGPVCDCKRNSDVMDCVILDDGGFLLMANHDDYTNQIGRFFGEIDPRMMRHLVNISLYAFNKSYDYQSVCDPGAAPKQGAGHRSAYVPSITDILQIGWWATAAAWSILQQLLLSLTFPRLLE
T2 sequence (P54290 945-1091 partner): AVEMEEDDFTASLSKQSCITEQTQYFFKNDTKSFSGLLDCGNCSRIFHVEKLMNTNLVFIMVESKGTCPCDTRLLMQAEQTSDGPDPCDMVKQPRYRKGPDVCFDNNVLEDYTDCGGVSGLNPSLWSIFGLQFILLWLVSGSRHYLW

As to `COC(=O)C1=C(C)NC(C)=C([N+](=O)[O-])[C@@H]1c1ccccc1C(F)(F)F` [R(+)BayK 8644], the inhibition at 100 µM is 74.2 ± 0.05% at TCaV1 [1] (read-out: % block at 100 μM) and 97.3 ± 0.01% at rCaV1.2 [2] (read-out: % block at 100 μM).
In the case of `COC(=O)C1=C(C)NC(C)=C([N+](=O)[O-])[C@H]1c1ccccc1C(F)(F)F` [S(-)BayK 8644], the “fold-increase in peak current at 5 μM” value stood at 1.11 ± 0.024 fold on TCaV1 [3] and 1.64 ± 0.32 fold at rCaV1.2 [4].
For the molecule `COC(=O)C1=C(C)NC(C)=C(C(=O)OC(C)C)C1c1cccc2nonc12` (centres unmarked) [isradipine], the inhibition at 10 µM was found to be 11.5 ± 2.2% at TCaV1 [1] and 95 ± 6.1% on rCaV1.2 [2].
In the same order, the values of `COC(=O)C1=C(C)NC(C)=C(C(=O)OC)C1c1ccccc1[N+](=O)[O-]` [nifedipine] are 5.8 ± 3.6% and 99.7 ± 0.1%.
